# Key:
# Type in all cases: cell-based, mouse
# [1] = system: β-galactosidase in CMV-LacZ C2C12 myoblasts; assay: CMV-LacZ secondary screen in C2C12 myoblasts (β-Gal stabilizing assay); settings: for CMV-LACZ in Myoblasts (β-galactosidase activity relative to DMSO): CMV-LacZ C2C12 myoblasts; for CMV-LACZ in Myoblasts, value relative to DMSO: SU9516 analogs, C2C12 CMV-LacZ, N=2
# In short: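 First, C2C12 myoblasts were transfected with a linearized CMV-LACZ vector and clonal lines selected by FDG β-gal assay. Then cells were exposed to compounds at 0.5, 1, 5, 10, 20 and 40 μM in 96-well format, two replicates each, and β-gal measured.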
# [2] = system: α7 integrin (LacZ reporter in α7+/LacZ myotubes); assay: Myotube α7 integrin FDG assay (Burkin assay in myotubes, 96-well); settings: for Burkin Assay in Myotubes, value relative to DMSO: SU9516 analogs, 96-well, N=3-6
# [3] = system: β-galactosidase in CMV-LacZ C2C12 myotubes; assay: CMV-LacZ secondary screen in C2C12 myotubes (β-Gal stabilizing assay); settings: for CMV-LACZ in Myotubes, signal relative to DMSO: C2C12 CMV-LacZ myotubes, fold relative to DMSO; for CMV-LACZ in Myotubes, value relative to DMSO: SU9516 analogs, C2C12 CMV-LacZ, N=2
# In short: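 CMV-LacZ C2C12 line (clonal, FDG-screened); myoblasts/myotubes dosed 0.5–40 μM (0.5, 1, 5, 10, 20, 40 μM); n=2 per point; β-gal stabilization read-out.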
# [4] = system: α7 integrin (LacZ reporter in α7βgal+/− myoblasts); assay: Myoblast α7+/LacZ integrin FDG assay (Burkin assay in myoblasts, 96-well); settings: 96-well; for Burkin Assay in Myoblasts, signal relative to DMSO: α7+/LacZ myoblasts; for Burkin Assay in Myoblasts, value relative to DMSO: SU9516 analogs, N=3-6
structure (smiles),measurement,setting,value
COc1ccccc1NS(=O)(=O)c1cc(NC(=O)c2ccc(Cl)nc2)ccc1N1CCCC1 [MLS002248819-01],CMV-LACZ in Myoblasts (β-galactosidase activity relative to DMSO),[1]; 0.5 uM,0.9206
same,CMV-LACZ in Myoblasts (β-galactosidase activity relative to DMSO),[1]; 1 uM,1.2206
same,CMV-LACZ in Myoblasts (β-galactosidase activity relative to DMSO),[1]; 5 uM,1.2604
same,CMV-LACZ in Myoblasts (β-galactosidase activity relative to DMSO),[1]; 10 uM,1.1575
same,CMV-LACZ in Myoblasts (β-galactosidase activity relative to DMSO),[1]; 20 uM,1.7330
same,CMV-LACZ in Myoblasts (β-galactosidase activity relative to DMSO),[1]; 40 uM,1.0270
same,"Burkin Assay in Myotubes, α7 integrin LacZ reporter signal relative to DMSO",[2]; 0.5 uM,1.117
same,"Burkin Assay in Myotubes, α7 integrin LacZ reporter signal relative to DMSO",[2]; 1 uM,1.198
same,"Burkin Assay in Myotubes, α7 integrin LacZ reporter signal relative to DMSO",[2]; 5 uM,1.066
same,"Burkin Assay in Myotubes, α7 integrin LacZ reporter signal relative to DMSO",[2]; 10 uM,1.24
same,"Burkin Assay in Myotubes, α7 integrin LacZ reporter signal relative to DMSO",[2]; 20 uM,0.9243
same,"Burkin Assay in Myotubes, α7 integrin LacZ reporter signal relative to DMSO",[2]; 40 uM,0.8508
same,"CMV-LACZ in Myotubes, signal relative to DMSO",[3]; 0.5 uM,1.0819
same,"CMV-LACZ in Myotubes, signal relative to DMSO",[3]; 1 uM,0.9505
same,"CMV-LACZ in Myotubes, signal relative to DMSO",[3]; 5 uM,1.1171
same,"CMV-LACZ in Myotubes, signal relative to DMSO",[3]; 10 uM,1.1534
same,"CMV-LACZ in Myotubes, signal relative to DMSO",[3]; 20 uM,0.9847
same,"CMV-LACZ in Myotubes, signal relative to DMSO",[3]; 40 uM,1.1929
same,"Burkin Assay in Myoblasts, signal relative to DMSO",[4]; 0.5 uM,1.126
same,"Burkin Assay in Myoblasts, signal relative to DMSO",[4]; 1 uM,1.113
same,"Burkin Assay in Myoblasts, signal relative to DMSO",[4]; 5 uM,1.068
same,"Burkin Assay in Myoblasts, signal relative to DMSO",[4]; 10 uM,1.0849
same,"Burkin Assay in Myoblasts, signal relative to DMSO",[4]; 20 uM,0.8184
same,"Burkin Assay in Myoblasts, signal relative to DMSO",[4]; 40 uM,0.7689
Cc1nc(Nc2ccccc2F)c2oc3ccccc3c2n1 [MLS001215123-01],CMV-LACZ in Myoblasts (β-galactosidase activity relative to DMSO),[1]; 0.5 uM,1.0530
same,CMV-LACZ in Myoblasts (β-galactosidase activity relative to DMSO),[1]; 1 uM,0.8837
same,CMV-LACZ in Myoblasts (β-galactosidase activity relative to DMSO),[1]; 5 uM,1.0888
same,CMV-LACZ in Myoblasts (β-galactosidase activity relative to DMSO),[1]; 10 uM,1.1943
same,CMV-LACZ in Myoblasts (β-galactosidase activity relative to DMSO),[1]; 20 uM,1.2639
same,CMV-LACZ in Myoblasts (β-galactosidase activity relative to DMSO),[1]; 40 uM,1.0098
same,"Burkin Assay in Myotubes, α7 integrin LacZ reporter signal relative to DMSO",[2]; 0.5 uM,0.9466
same,"Burkin Assay in Myotubes, α7 integrin LacZ reporter signal relative to DMSO",[2]; 1 uM,0.901
same,"Burkin Assay in Myotubes, α7 integrin LacZ reporter signal relative to DMSO",[2]; 5 uM,1.049
same,"Burkin Assay in Myotubes, α7 integrin LacZ reporter signal relative to DMSO",[2]; 10 uM,1.137
same,"Burkin Assay in Myotubes, α7 integrin LacZ reporter signal relative to DMSO",[2]; 20 uM,0.6938
same,"Burkin Assay in Myotubes, α7 integrin LacZ reporter signal relative to DMSO",[2]; 40 uM,0.816
same,"CMV-LACZ in Myotubes, signal relative to DMSO",[3]; 0.5 uM,1.1657
same,"CMV-LACZ in Myotubes, signal relative to DMSO",[3]; 1 uM,1.1457
same,"CMV-LACZ in Myotubes, signal relative to DMSO",[3]; 5 uM,1.1153
same,"CMV-LACZ in Myotubes, signal relative to DMSO",[3]; 10 uM,1.2929
same,"CMV-LACZ in Myotubes, signal relative to DMSO",[3]; 20 uM,1.0710
same,"CMV-LACZ in Myotubes, signal relative to DMSO",[3]; 40 uM,1.1030
same,"Burkin Assay in Myoblasts, signal relative to DMSO",[4]; 0.5 uM,1.075
same,"Burkin Assay in Myoblasts, signal relative to DMSO",[4]; 1 uM,0.9708
same,"Burkin Assay in Myoblasts, signal relative to DMSO",[4]; 5 uM,1.1241
same,"Burkin Assay in Myoblasts, signal relative to DMSO",[4]; 10 uM,1.155
same,"Burkin Assay in Myoblasts, signal relative to DMSO",[4]; 20 uM,0.665
same,"Burkin Assay in Myoblasts, signal relative to DMSO",[4]; 40 uM,0.5252
O=Nc1c(-c2c(O)[nH]c3ccccc23)[nH]c2ccccc12 [NCGC00015545-02],"CMV-LACZ in Myoblasts, value relative to DMSO",[1]; 0.5 uM,1.0179
same,"CMV-LACZ in Myoblasts, value relative to DMSO",[1]; 5 uM,0.9440
same,"CMV-LACZ in Myoblasts, value relative to DMSO",[1]; 10 uM,0.8475
same,"CMV-LACZ in Myoblasts, value relative to DMSO",[1]; 20 uM,0.2907
same,"CMV-LACZ in Myoblasts, value relative to DMSO",[1]; 40 uM,0.2480
same,"Burkin Assay in Myotubes, value relative to DMSO",[2]; 0.5 uM,0.913
same,"Burkin Assay in Myotubes, value relative to DMSO",[2]; 1 uM,0.9118
same,"Burkin Assay in Myotubes, value relative to DMSO",[2]; 5 uM,0.6921
same,"Burkin Assay in Myotubes, value relative to DMSO",[2]; 10 uM,0.5516
same,"Burkin Assay in Myotubes, value relative to DMSO",[2]; 20 uM,0.4959
same,"Burkin Assay in Myotubes, value relative to DMSO",[2]; 40 uM,0.3519
same,"CMV-LACZ in Myotubes, value relative to DMSO",[3]; 0.5 uM,0.8627
same,"CMV-LACZ in Myotubes, value relative to DMSO",[3]; 1 uM,0.9536
same,"CMV-LACZ in Myotubes, value relative to DMSO",[3]; 5 uM,0.7586
same,"CMV-LACZ in Myotubes, value relative to DMSO",[3]; 10 uM,0.5058
same,"CMV-LACZ in Myotubes, value relative to DMSO",[3]; 20 uM,0.5490
same,"CMV-LACZ in Myotubes, value relative to DMSO",[3]; 40 uM,0.4770
same,"Burkin Assay in Myoblasts, value relative to DMSO",[4]; 0.5 uM,1.175
same,"Burkin Assay in Myoblasts, value relative to DMSO",[4]; 1 uM,1.325
same,"Burkin Assay in Myoblasts, value relative to DMSO",[4]; 5 uM,0.596
same,"Burkin Assay in Myoblasts, value relative to DMSO",[4]; 10 uM,0.319
same,"Burkin Assay in Myoblasts, value relative to DMSO",[4]; 20 uM,0.3086
same,"Burkin Assay in Myoblasts, value relative to DMSO",[4]; 40 uM,0.1824

# From US9980943B2, “Methods of treating muscular dystrophy” (BOARD OF REGENTS OF THE NEVADA SYSTEM OF HIGHER EDUCATION, …, priority 2013, dated 2018)
